# Test results from article PMC10611374, “Characterization of the Hemolytic Activity of Mastoparan Family Peptides from Wasp Venoms” (Toxins, 2023).
# Several values for one entry are separate records, joined by “and”; a condition that tells them apart may be missing. Equal values may be shown once. Read-outs that look alike come from different tables or passages of the source. Ends that are not written are not given here.
# Key:
# [1] = test system: human red blood cells (HRBCs); test: Hemolytic assay on human red blood cells; type: cell-based; conditions: for HRBC Hemolysis (hemolysis rate at 320 μg/mL) / EC50: human red blood cells 5% (v/v) in PBS, 37 °C 1 h, OD 540 nm; for HRBC Hemolysis (hemolysis rate at 320 μg/mL): peptide 320 μg/mL (highest dose), PBS = 0%, mean of three independent experiments; for EC50: four-parameter logistic fit of mean of three independent experiments, '-' = hemolytic activity too low to calculate the EC50; for hemolytic activity on HRBCs, result in words: mutants relative to Protopolybia-MPIII
# Protocol: (§1) Fresh human red blood cells were obtained from healthy donors and collected in a sterile blood collecting vessel covered with sodium citrate (1:9) as the anticoagulating agent. Rat red blood cells were collected from the abdominal aorta in sterile blood-collecting vessels coated with sodium citrate (1:4) after the SD rats were anaesthetized with isoflurane. Then, the cells were washed three times with phosphate-buffered saline via centrifugation (1000× g, 4 °C, 5 min) and prepared in a sterile 96-well polypropylene plate to achieve a final concentration of 5% (v/v). Twofold dilutions of the peptides were prepared in PBS to 100 μL and mixed with an equal volume of HRBCs/RRBCs suspension to final peptide concentrations ranging from 10 to 320 μg/mL. After coincubation at 37 °C for 1 h, the plate was centrifuged (2000× g, 4 °C, 20 min), and 100 μL of supernatant was taken for optical density measurements at 540 nm using a microtiter plate reader (SpectraMax 190). The HRBCs/RRBCs were assayed with PBS (blank) or 1% Triton X-100 (positive control) to represent 0% and 100% hemolysis, respectively. The percent hemolysis was calculated according to the following equation: Hemolysis Rate (%) = 100% × (Amastoparans − Ablank)/(ATriton X-100 − Ablank). Three independent experiments were performed, and the mean hemolysis rate at each dose was used to calculate the EC50 in Sigmaplot software.
# (§2) Statistical analysis was performed with GraphPad Prism software (version 5.0, San Diego, CA, USA). A two-tailed Student’s t-test was used to calculate the statistical probability in this study. Differences in the data were considered to be statistically significant when the p value was equal to or less than 0.05. The curve of hemolysis induced by wasp mastoparans was generated in SigmaPlot 12.5 software, and the EC50 was calculated according to the equation (Four Parameter Logistic Curve): y = min + (max − min)/(1 + (x/EC50)^−Hillslope). The heat map of hemolytic activity of mastoparan peptide was analysed in R software which is based on the value of log2(EC50).
# [2] = test system: rat red blood cells (RRBCs); test: Hemolytic assay on rat red blood cells; type: cell-based, SD rats; conditions: for RRBC Hemolysis (hemolysis rate at 320 μg/mL) / EC50: rat red blood cells 5% (v/v) in PBS, 37 °C 1 h, OD 540 nm; for RRBC Hemolysis (hemolysis rate at 320 μg/mL): peptide 320 μg/mL (highest dose), PBS = 0%, mean of three independent experiments; for EC50: four-parameter logistic fit of mean of three independent experiments, '-' = hemolytic activity too low to calculate the EC50
# Protocol: as §1, §2
# E. coli = conditions: reported antibacterial activity; reference per peptide in Table 3; cited from earlier work
# S. aureus = conditions: reported antibacterial activity; reference per peptide in Table 3; cited from earlier work
# B. subtilis = conditions: reported antibacterial activity; reference per peptide in Table 3; cited from earlier work
# [3] = test system: Escherichia coli and Staphylococcus aureus/Bacillus subtilis; set-up: method as in Table 3 refs 12, 13, 18-30; conditions: both on Escherichia coli and Staphylococcus aureus/Bacillus subtilis; reported values, ref Table 3 refs 12, 13, 18-30; cited from earlier work
# [4] = peptide 10-320 μg/mL twofold dilutions, 1% Triton X-100 = 100%, read-out: HRBC EC50 (hemolytic activity)
# [5] = peptide 10-320 μg/mL twofold dilutions, 1% Triton X-100 = 100%, read-out: RRBC EC50 (hemolytic activity)
# [6] = Table 2 series, read-out: HRBC EC50 (hemolytic activity), Protopolybia-MPIII and mutants
# [7] = Table 2 series, read-out: RRBC EC50 (hemolytic activity), Protopolybia-MPIII and mutants
Molecule,HRBC Hemolysis (hemolysis rate at 320 μg/mL) ([1]; 1% Triton X-100 = 100%) [%],"EC50 [1, 4]",RRBC Hemolysis (hemolysis rate at 320 μg/mL) ([2]; 1% Triton X-100 = 100%) [%],"EC50 [2, 5] [µM]",MIC E. coli (E. coli) [µM],MIC S. aureus (S. aureus) [µM],MIC B. subtilis (B. subtilis) [µM],"hemolytic activity on HRBCs, result in words [1]","hemolytic activity on RRBCs, result in words [2]","MIC (antibacterial activity, summary) [3] [µM]","EC50 [1, 6] [µM]","EC50 [2, 7] [µM]"
KDLHTVVSAILQAL-NH2 [OdVP3a],24,> 400 µM,27,> 400,>200,>200,10,,,,,
INLKAIAALAKKLL-NH2 [Mastoparan-M],18,> 400 µM,28,> 400,13.5,3.38,,,,,,
INLKAIAAFAKKLL-NH2 [Mastoparan-T(D)],15,> 400 µM,19,> 400,5.3,15.9,,,,,,
INMKASAAVAKKLL-NH2 [MP-VB1],0,> 400 µM,7,> 400,10.3,2.5,,,,,,
LKLLGIVKKVLGAI-NH2 [EMP-EM2],8,> 400 µM,2,> 400,3,17,68,,,,,
LKLMGIVKKVLGAL-NH2 [EMP-EM1],21,> 400 µM,7,> 400,7,34,68,,,,,
LNLKGLIKKVASLLN-OH [Eumenitin-R],5,> 400 µM,7,> 400,30,60,,almost no hemolytic activity,almost no hemolytic activity,,,
LNLKGIFKKVASLLT-OH [Eumenitin],6,> 400 µM,4,> 400,6,6,>60,almost no hemolytic activity,almost no hemolytic activity,,,
INWKKIAEVGGKILSSL-NH2 [Dominulin A],4,≥ 400 µM,0,> 400,1,,4,,,≤ 10,,
INWKGIAAMAKKLL-NH2 [Mastoparan-X(V)],29,≤ 400 µM and 349 µM,70,156 ± 2.4,,,,,,,,
INWKKIAEIGKQVLSAL-NH2 [Dominulin B],8,≥ 400 µM,0,> 400,1,,4,,,≤ 10,,
INWLKLGKKVIAAL-NH2 [Protopolybia-MPIII-6],,,,,,,,,,,110 ± 2.5,108 ± 3.2
CC[C@H](C)[C@H](N)C(=O)N[C@@H](CC(N)=O)C(=O)N[C@@H](CC(C)C)C(=O)N[C@@H](CCCCN)C(=O)N[C@@H](C)C(=O)N[C@@H](CC(C)C)C(=O)N[C@@H](C)C(=O)N[C@@H](C)C(=O)N[C@@H](CC(C)C)C(=O)N[C@@H](C)C(=O)N[C@@H](CCCCN)C(=O)N[C@@H](CCCCN)C(=O)N[C@H](C(=O)N[C@@H](CC(C)C)C(N)=O)[C@@H](C)CC [Mastoparan (L)],100,82.9 ± 3.8 µM,41,242 ± 2.6,,,,,,,,
CC[C@H](C)[C@H](NC(=O)[C@H](CO)NC(=O)[C@H](CCCCN)NC(=O)[C@H](CC(C)C)NC(=O)[C@H](CCCCN)NC(=O)[C@@H](N)CC(C)C)C(=O)N[C@H](C(=O)N[C@@H](CO)C(=O)N[C@@H](Cc1c[nH]c2ccccc12)C(=O)N[C@@H](C)C(=O)N[C@@H](CCCCN)C(=O)N[C@@H](CCCCN)C(=O)N[C@H](C(=O)N[C@@H](CC(C)C)C(N)=O)C(C)C)C(C)C [Mastoparan-B],22,> 400 µM,19,> 400,10,60,,,,,,
INWKGIAAMKKLL-NH2 [Mastoparan-like peptide 12b],0,≥ 400 µM,0,> 400,10,2.5,,,,≤ 10,,
INWLKLGKKVIDIL-NH2 [Protopolybia-MPIII-7],,,,,,,,,,,37.8 ± 3.7,57.5 ± 2.7
INWLKLGKAVIDIL-NH2 [Protopolybia-MPIII-4],,,,,,,,,,,11.3 ± 6.2,19.8 ± 1.2
INLKALAALVKKVL-NH2 [Mastoparan-II],78,134.6 ± 1.2 µM,90,147 ± 3.4,,,,,,,,
IDWLKLGKMVMDVL-NH2 [Polybia-MP III],79,38.5 ± 5.9 µM,100,74.8 ± 10.4,,,,,,,,
INLKGLIKKVASLLT-OH [EpVP1],9,> 400 µM,0,> 400,25,100,5,almost no hemolytic activity,almost no hemolytic activity,,,
INLKAIAALAKKLF-NH2 [Mastoparan AF],47,227 ± 3.1 µM,92,107 ± 15.7,,,,,,,,
INWLKLGKAVIAIL-NH2 [Protopolybia-MPIII-10],,,,,,,,,,,11.3 ± 1.2,11.7 ± 1
INLLKIAKGIIKSL-NH2 [EMP-AF],100,111 ± 9.8 µM,100,122 ± 13.1,,,,,,,,
INWLKLGKKVIAIL-NH2 [Protopolybia-MPIII-12],,,,,,,,,,,43.9 ± 3.6,55.2 ± 2.2
INWKKMAATALKMI-NH2 [Parapolybia-MP],32,≥ 400 µM and > 400 µM and 306 µM,22,,,,,,,,,
INWLKLGKKILGAI-NH2 [Pm-R1],100,72 ± 8.5 µM,92,105 ± 2.2,,,,,,,,
